Data on 1 compound can be found in BindingDB's records for doi:10.1016/s0960-894x(98)00290-x (3-Dimensional Pharmaceuticals, 1999).

Assay [1] is described as follows: Compound was tested in vitro for its ability to inhibit serine protease trypsin using benzoyl-Phe-Val-Arg-p-nitroanilide as substrate.
Assay [2] is described as follows: Compound was tested in vitro for its ability to inhibit serine protease chymotrypsin using suc-Ala-Ala-Pro-Phe-p-nitroanilide as substrate.

Each structure is given as a SMILES string.

Take `Cc1cc(OCCCNC(=N)N)cc(OS(=O)(=O)c2ccccc2Cl)c1` [2-Chloro-benzenesulfonic acid 3-(3-guanidino-propoxy)-5-methyl-phenyl ester]: the Ki in assay [1] is 23 µM; in assay [2], more than 200 µM.

In general, Ki refers to a measure of affinity in units of concentration, obtained from inhibition or displacement.
